According to patent US20180369219A1, “USING DABIGATRAN TO TREAT PANCREATITIS” (Mayo Foundation for Medical Education and Research, priority 2017, published 2018):

Experiments:
[1] = system: human having pancreatitis; test: Treating a human identified as having pancreatitis (Example 2); type: in vivo; details: 112 mg dabigatran or 150 mg dabigatran etexilate at least twice a day for one to three weeks
Procedure: A human identified as having pancreatitis is administered 112 mg of dabigatran or 150 mg of dabigatran etexilate at least twice a day for one to three weeks.

[2] = system: mutant trypsinogen mice; test: Prevention of pancreatitis in mouse model expressing active trypsin (PACE-trypsinogen); type: in vivo; details: pretreated two hours prior to caerulein and seven hours after final caerulein injection, Dabigatran 200 mg/kg×2, Camostat 300 mg/kg×2, Ximelagatran 40 mg/kg×2
Procedure: (§1) The secretagogue overstimulation model of experimental pancreatitis with caerulein, is a commonly used AP model (Zhan et al., Gastrointestinal Liver Physiology, 311:G343-55 (2016)). This model was accomplished by repeated intraperitoneal (ip) injections of caerulein (100 μg/kg/hour) once per hour (Huang et al., Gastroenterology, 144:202-10 (2013)).
A PACE-activated trypsinogen model in which the original enteropeptidase cleavage site (DDDDK) was replaced by a PACE cleavage site (RTKR), using site-specific mutagenesis of the wild type rat trypsinogen cDNA, was produced (Ji et al., J. Biol. Chem., 284:17488-98 (2009)). PACE, paired basic amino acid cleaving enzyme (also called furin), is a mammalian propeptide-processing endoprotease that is present in the trans-Golgi network of virtually all cells. To target expression of PACE-trypsinogen specifically to pancreatic acinar cells, conditional LGL (loxP-GFP-stop-loxP)-PACE-trypsinogen transgenic mice were bred with full-length, acinar specific, elastase promoter-regulated Cre transgenic mice. […]
(§2) Pancreas edema, serum amylase, and histology were evaluated as described elsewhere (Gaiser et al., Gut, 60:1379-88 (2011); Huang et al., Gastroenterology, 144:202-10 (2013); and Daniluk et al., J. Clin. Invest., 122:1519-28 (2012)). […]

[3] = system: WT mice; test: Prevention of caerulein-induced acute pancreatitis in WT mice; type: in vivo, mouse; details: evaluated 24 h after first caerulein dose, Dabigatran 200 mg/kg×2, Camostat 300 mg/kg×2
Procedure: as §1
Camostat mesilate (Santa Cruz), Dabigatran etexilate mesylate (a prodrug for Dabigatran, TRC Canada), and Ximelagatran (a prodrug for Melagatran, Sigma-Aldrich) were dissolved in 10% β-Cyclodextrin (Sigma-Aldrich). […]
Pancreas edema, serum amylase, and histology were evaluated as described elsewhere (Gaiser et al., Gut, 60:1379-88 (2011); Huang et al., Gastroenterology, 144:202-10 (2013); and Daniluk et al., J. Clin. Invest., 122:1519-28 (2012)).
The effect of Dabigatran on experimental pancreatitis in WT mice was evaluated. Dabigatran and Camostat were administrated by oral gavage two hours before the initiation of AP by six hourly injections of caerulein (FIG. 1A). Twenty-four hours after the first dose of caerulein, the severity of pancreatitis was evaluated.

[4] = system: PRSS1R122H mice; test: Therapeutic administration after AP induction in PRSS1R122H mice, progression to chronic pancreatitis; type: in vivo, mouse; details: administered four hours after AP induction by caerulein, treated for additional five days, Dabigatran 200 mg/kg Bid, Camostat 300 mg/kg Bid
Procedure: as §1
A model of human hereditary pancreatitis (HP) was developed by using a bacterial artificial chromosome (BAC, clone RP11-701D14) harboring the full-length human PRSS1 gene containing an intact PRSS1 promoter, all exons and introns, and the 3′ untranslated region for faithful recapitulation of the gene's expression. An R122H point mutation was introduced by two rounds of genetic targeting using Galk-mediated recombineering (PRSS1^R122H) (Warming et al., Nucleic Acids Research, 33:e36 (2005)). This transgene expressed PRSS1^R122H at ˜50% of the endogenous human PRSS1 protein level as detected by Western blot (WB) and real-time RT-PCR. […]
as §2

[5] = system: PRSS1R122H mice; test: Prevention of caerulein-induced pancreatitis in mouse model of human hereditary pancreatitis (PRSS1R122H); type: in vivo; details: Dabigatran 200 mg/kg×2, Camostat 300 mg/kg×2
Procedure: as §1
A model of human hereditary pancreatitis (HP) was developed by using a bacterial artificial chromosome (BAC, clone RP11-701D14) harboring the full-length human PRSS1 gene containing an intact PRSS1 promoter, all exons and introns, and the 3′ untranslated region for faithful recapitulation of the gene's expression. An R122H point mutation was introduced by two rounds of genetic targeting using Galk-mediated recombineering (PRSS1^R122H) (Warming et al., Nucleic Acids Research, 33:e36 (2005)). This transgene expressed PRSS1^R122H at ˜50% of the endogenous human PRSS1 protein level as detected by Western blot (WB) and real-time RT-PCR. Taking into account that the PRSS1^R122H mutation was heterozygous, and that mutated PRSS1 constituted 50% of the total PRSS1 in human HP, this model does expressPRSS1^R122H at a physiologically relevant level. In this mouse model, spontaneous AP and CP were not observed. However, these mice developed more severe AP following the induction of AP with caerulein injection. More importantly, all of the PRSS1^R122H mice, but none of the WT mice, developed CP with an observed histopathology similar to that seen in human HP (Singhi et al., Am. J. Surg. Path., 38:346-53 (2014)). Therefore, this model faithfully recapitulates the histological changes observed during human HP (Singhi et al., Am. J. Surg. Path., 38:346-53 (2014)). […]
as §2

SMILES | severity of the pancreatitis [1] | development of severe AP (pancreas edema, serum amylase) [2] | pancreatic edema (pancreas/body weight ratio) ([3]; oral gavage two hours before six hourly caerulein injections (100 μg/kg×6)) | serum amylase levels ([3]; oral gavage two hours before six hourly caerulein injections) | progression of AP to CP (pancreas/body weight ratio, histology) [4] | pancreatic edema (pancreas/body weight ratio) ([5]; pretreatment before caerulein (100 μg/kg×6)) | pancreatic histology ([5]; pretreatment before caerulein) | serum amylase levels ([5]; pretreatment before caerulein)
CCCCCCOC(=O)N=C(N)c1ccc(NCc2nc3cc(C(=O)N(CCC(=O)OCC)c4ccccn4)ccc3n2C)cc1 [dabigatran etexilate] | reduction in the severity of the pancreatitis | – | – | – | – | – | – | –
CN(C)C(=O)COC(=O)Cc1ccc(OC(=O)c2ccc(NC(=N)N)cc2)cc1 [Camostat, Camostat mesilate] | – | no ability to prevent the development of severe AP | moderately reduce | no significant effect | no positive effects on preventing the development of CP | only slightly improved | only slightly improved | only slightly improved
